Laboratory results as given in patent US20190375708A1 (VenatoRx Pharmaceuticals, Inc., priority 2018, published 2019).

Tests used:
[1] = test system: HBV replication in HepAD38 cells; assay: Anti-HBV replication assay in HepAD38 cells (QPCR of extracellular HBV DNA); assay type: cell-based, HBV (genotype D, serotype ayw); details: Hepatitis B virus, 168 h, 7 days incubation, extracellular HBV DNA by QPCR, read-out: Anti-HBV EC50
Experimental: The anti-HBV activity of the Capsid Assembly Modulators (CAMs) was evaluated in a cell based assay utilizing the human hepatoma cell line HepAD38 (Ladner, S K., et al., 1998). HepAD38 cells were derived from the parental line, HepG2, that were stably transfected with a construct containing an HBV genome (genotype D, serotype ayw) under the control of a tetracycline repressible CMV promoter. Upon removal of tetracycline, viral pre-genomic RNA (pgRNA) and mRNAs are expressed and infectious viral particles are assembled and secreted into the culture medium providing a reliable, robust system to measure multiple steps of the HBV life cycle. Disruption of capsid formation results in reduced levels of DNA-containing virus particles that are released into the culture supernatant. To quantify the effect of CAMs on HBV replication, we developed a sensitive QPCR-based assay that measures extracellular HBV DNA levels upon treatment of HepAD38 cells with various concentrations of test compounds.
HepAD38 cells were maintained in DMEM/F12 medium containing 10% FBS, 400 μg/mL G418 and 0.3 μg/mL tetracycline (tet+ media) to maintain repression of HBV replication. To evaluate each compound, HepAD38 cells were seeded into 24-well collagen coated culture plates (Corning BioCoat) at a density of 200,000 cells per well in 1 mL of medium without tetracycline (tet-media) and allowed to adhere overnight at 37° C., 5% CO2 in a humidified incubator. The following day, media was refreshed and a dose range of each compound was prepared by performing 1 log10 serial dilutions in 100% DMSO at 200× the desired assay concentration. Dilutions were then added to the cells resulting in a final dose range of 1 μM to 10 μM and the plates were returned to the incubator. Following 7 days of incubation, culture supernatants were harvested and HBV DNA levels were evaluated by QPCR and compared to the vehicle treated control wells (i.e. DMSO alone).
To quantify HBV DNA levels, cell culture supernatants were diluted 1:10 in sterile, nuclease-free water (Gibco). The diluted supernatants were subsequently added to a PCR master mix containing 1× Roche Light Cycler Master Mix, 0.5 μM forward primer, 0.5 μM reverse primer (Fwd: 5′-[…] (SEQ ID NO 1); Rev: 5′-[…] (SEQ ID NO 2)), 0.2 μM Roche Universal Probe Library Probe 25. The volume was brought to 20 μL with nuclease-free water and amplification of the HBV target sequence was performed using a Roche LightCycler 480 QPCR instrument. PCR extended out to 45 cycles with each cycle consisting of a denaturation step at 95° C. for 10 sec., followed by an annealing step at 60° C. for 10 sec. and a brief extension step at 72° C. for 1 sec.
Extracellular HBV DNA levels, expressed in copies/mL, were determined by comparison to a standard curve (10^2-10^9 copies/mL) using the Roche LightCycler analysis software. These values were subsequently converted to percent inhibition of HBV replication by dividing the HBV DNA levels in the experimental samples with those obtained from the vehicle control (˜1-2×10^5 copies/mL). Potency, expressed as an EC50 (the effective concentration required to inhibit 50% of HBV replication), was calculated from the dose-response curve using a 4-parameter non-linear regression analysis (GraphPad Prism). The nucleoside analog inhibitor entecavir was used as a positive control to validate each assay run. The EC50 value of entecavir in the HepAD38 assay was 0.5 nM, as previously reported in the literature.

[2] = In vitro cytotoxicity assay (MTT cell viability) in HepG2 cells; assay type: cell-based, human; details: human
Experimental: To evaluate antiviral selectivity, the cytotoxic activity of each compound was determined using a standard cell viability assay performed on the parental HepG2 cell line. Cell viability was determined by measuring the conversion of 3-(4,5-dimethylthiazol-2-yl)-2,5-diphenyltetrazolium bromide (MTT) to the insoluble formazan salt crystal that occurs in live cells. Briefly, HepG2 cells were seeded in 96-well plates at a density of 20,000 cells per well in EMEM+10% FBS (complete growth medium) and allowed to adhere overnight in a 37° C., 5% CO2 humidified incubator. The next day, test agents were prepared by performing 8 half-log10 serial dilutions in 100% DMSO at 200× the final desired concentration in the assay. Compounds were tested over a range of concentrations from 30 μM to 1.0 nM in the assay. HepG2 cells were incubated in the presence of various concentrations of CAMs for 7 days in a 37° C., 5% CO2 humidified incubator. At the completion of the 7-day incubation period, MTT reagent was added to each well and the mixture was incubated for an additional 3-4 hours. At the completion of the incubation period, all wells were aspirated to remove the culture medium. The formazan crystals were solubilized from the cell monolayers with 100% DMSO. Plates were briefly mixed on an orbital shaker and absorbance was measured at 492 nm using a Perkin-Elmer EnVision multi-label plate reader. All absorbance values were converted to a percentage of the signal obtained from the vehicle treated controls. Absorbance values at 492 nm are directly proportional to the number of viable cells present in the sample. A CC50 value (cytotoxic concentration that results in loss of 50% cell viability) was calculated from the dose-response curve by 4-parameter, non-linear regression analysis using the GraphPad Prism software. The positive control compound, staurosporine, reduced the viability of HepG2 cells in a dose-dependent manner (CC50=100 nM).

Structure (SMILES): CC(C)(O)CNC(=O)C(=O)c1c(Cl)c(C(=O)Nc2ccc(F)c(F)c2)c2n1CCC2 [Example 560, 6-chloro-N-(3,4-difluorophenyl)-5-(2-((2-hydroxy-2-methylpropyl)amino)-2-oxoacetyl)-2,3-dihydro-1H-pyrrolizine-7-carboxamide]
- EC50 [1]: < 0.05 µM
- CC50 at 7 days [2]: > 30 µM

Structure (SMILES): Cc1cc(NC(=O)c2c(Cl)c(C(=O)C(=O)NC(C)(C)CO)n(C)c2C)ccc1F [Example 365, 4-chloro-N-(4-fluoro-3-methylphenyl)-5-(2-((1-hydroxy-2-methylpropan-2-yl)amino)-2-oxoacetyl)-1,2-dimethyl-1H-pyrrole-3-carboxamide]
- EC50 [1]: < 0.05 µM
- CC50 at 7 days [2]: > 30 µM

Structure (SMILES): Cc1cc(NC(=O)c2c(C)c(C(=O)C(=O)NC3(CN4CCN(c5ccc(Cl)cc5)CC4)CC3)n(C)c2C)ccc1F [Example 661, 5-(2-((1-((4-(4-chlorophenyl)piperazin-1-yl)methyl)cyclopropyl)amino)-2-oxoacetyl)-N-(4-fluoro-3-methylphenyl)-1,2,4-trimethyl-1H-pyrrole-3-carboxamide]
- EC50 [1]: < 0.05 µM
- CC50 at 7 days [2]: 5 to 30 µM

Structure (SMILES): Cc1cc(NC(=O)c2c(Cl)c(C(=O)C(=O)NCC(C)(C)CO)n3c2CCC3)cnc1F [Example 577, 6-chloro-N-(6-fluoro-5-methylpyridin-3-yl)-5-(2-((3-hydroxy-2,2-dimethylpropyl)amino)-2-oxoacetyl)-2,3-dihydro-1H-pyrrolizine-7-carboxamide]
- EC50 [1]: > 1 µM
- CC50 at 7 days [2]: > 30 µM

Structure (SMILES): O=C(N[C@H]1CCC[C@H]1O)C(=O)c1c(Cl)c(C(=O)Nc2ccc(F)c(Cl)c2)c2n1CCCC2 [Example 514, 2-chloro-N-(3-chloro-4-fluorophenyl)-3-(2-(((1S,2R)-2-hydroxycyclopentyl)amino)-2-oxoacettyl)-5,6,7,8-tetrahydroindolizine-1-carboxamide]
- EC50 [1]: 0.05 to 0.499 µM
- CC50 at 7 days [2]: 5 to 30 µM

Structure (SMILES): Cc1cc(NC(=O)c2c(C)c(C(=O)C(=O)NC3(C)CCN(c4cnccn4)CC3)n(C)c2C)ccc1F [Example 715, N-(4-fluoro-3-methylphenyl)-1,2,4-trimethyl-5-(2-((4-methyl-1-(pyrazin-2-yl)piperidin-4-yl)amino)-2-oxoacetyl)-1H-pyrrole-3-carboxamide]
- EC50 [1]: < 0.05 µM
- CC50 at 7 days [2]: 5 to 30 µM

Structure (SMILES): Cc1cc(NC(=O)c2c(C)c(C(=O)C(=O)NC3(c4nc(-c5ccncc5)no4)CCCCC3)n(C)c2C)ccc1F [Example 630, N-(4-fluoro-3-methylphenyl)-1,2,4-trimethyl-5-(2-oxo-2-((1-(3-(pyridin-4-yl)-1,2,4-oxadiazol-5-yl)cyclohexyl)amino)acetyl)-1H-pyrrole-3-carboxamide]
- EC50 [1]: < 0.05 µM
- CC50 at 7 days [2]: > 30 µM

Structure (SMILES): Cc1csc(NC(=O)C(=O)c2c(C)c(C(=O)Nc3ccc(F)c(C)c3)c(C)n2C)n1 [Example 211, N-(4-fluoro-3-methylphenyl)-1,2,4-trimethyl-5-(2-((4-methylthiazol-2-yl)amino)-2-oxoacetyl)-1H-pyrrole-3-carboxamide]
- EC50 [1]: < 0.05 µM
- CC50 at 7 days [2]: > 30 µM

Structure (SMILES): Cc1noc([C@@H](C)NC(=O)C(=O)c2c(Cl)c(C(=O)Nc3ccnc(F)c3)c3n2CCCC3)n1 [Example 510, (R)-2-chloro-N-(2-fluoropyridin-4-yl)-3-(2-((1-(3-methyl-1,2,4-oxadiazol-5-yl)ethyl)amino)-2-oxoacetyl)-5,6,7,8-tetrahydroindolizine-1-carboxamide]
- EC50 [1]: > 1 µM
- CC50 at 7 days [2]: > 30 µM

Structure (SMILES): Cc1c(C(=O)Nc2cc(F)c(F)c(F)c2)c(Cl)c(C(=O)C(=O)N[C@@H]2CCC[C@@H]2O)n1C [Example 374, 4-chloro-5-(2-(((1R,2S)-2-hydroxycyclopentyl)amino)-2-oxoacetyl)-1,2-dimethyl-N-(3,4,5-trifluorophenyl)-1H-pyrrole-3-carboxamide]
- EC50 [1]: < 0.05 µM
- CC50 at 7 days [2]: 0.5 to 4.99 µM

Structure (SMILES): Cc1noc([C@H](C)NC(=O)C(=O)c2c(Cl)c(C(=O)Nc3ccc(F)c(C)c3)c3n2CCCC3)n1 [Example 494, (S)-2-chloro-N-(4-fluoro-3-methylphenyl)-3-(2-((1-(3-methyl-1,2,4-oxadiazol-5-yl)ethyl)amino)-2-oxoacetyl)-5,6,7,8-tetrahydroindolizinee-1-carboxamide]
- EC50 [1]: < 0.05 µM
- CC50 at 7 days [2]: 5 to 30 µM

Structure (SMILES): Cc1cc(NC(=O)c2cc(C(=O)C(=O)NC(C)(C)CO)n3c2CCCC3)ccc1F [Example 411, N-(4-fluoro-3-methylphenyl)-3-(2-((1-hydroxy-2-methylpropan-2-yl)amino)-2-oxoacetyl)-5,6,7,8-tetrahydroindolixzine-1-carboxamide]
- EC50 [1]: 0.05 to 0.499 µM
- CC50 at 7 days [2]: > 30 µM

Structure (SMILES): Cc1cc(NC(=O)c2c(C)c(C(=O)C(=O)NCCN3C(=O)CSC3=O)n(C)c2C)ccc1F [Example 649, 5-(2-((2-(2,4-dioxothiazolidin-3-yl)ethyl)amino)-2-oxoacetyl)-N-(4-fluoro-3-methylphenyl)-1,2,4-trimethyl-1H-pyrrole-3-carboxamide]
- EC50 [1]: < 0.05 µM
- CC50 at 7 days [2]: > 30 µM

Structure (SMILES): Cc1cc(NC(=O)c2c(C)c(C(=O)C(=O)N[C@@H](C)C(C)(C)C)n(C)c2C)ccc1F [Example 88, (S)-5-(2-((3,3-dimethylbutan-2-yl)amino)-2-oxoacetyl)-N-(4-fluoro-3-methylphenyl)-1,2,4-trimethyl-1H-pyrrole-3-carboxamide]
- EC50 [1]: < 0.05 µM
- CC50 at 7 days [2]: 5 to 30 µM

Structure (SMILES): Cc1cc(NC(=O)c2c(C)c(C(=O)C(=O)N[C@@H]3CCC[C@H]3O)n(C)c2C)cnc1F [Example 132, N-(6-fluoro-5-methylpyridin-3-yl)-5-(2-(((1R,2R)-2-hydroxycyclopentyl)amino)-2-oxoacetyl)-1,2,4-trimethyl-1H-pyrrole-3-carboxamide]
- EC50 [1]: 0.05 to 0.499 µM
- CC50 at 7 days [2]: > 30 µM

Structure (SMILES): Cc1cc(NC(=O)c2c(C)c(C(=O)C(=O)N[C@H]3C[C@H](O)C34CCOCC4)n(C)c2C)ccc1F [Example 620, N-(4-fluoro-3-methylphenyl)-5-(2-(((1S,3S)-3-hydroxy-7-oxaspiro[3.5]nonan-1-yl)amino)-2-oxoacetyl)-1,2,4-trimethyl-1H-pyrrole-3-carboxamide]
- EC50 [1]: < 0.05 µM
- CC50 at 7 days [2]: > 30 µM

Structure (SMILES): Cc1cc(NC(=O)c2c(Cl)c(C(=O)C(=O)NC(C)(C)C)n(C)c2C)cnc1F [Example 371, 5-(2-(tert-butylamino)-2-oxoacetyl)-4-chloro-N-(6-fluoro-5-methylpyridin-3-yl)-1,2-dimethyl-1H-pyrrole-3-carboxamide]
- EC50 [1]: 0.05 to 0.499 µM
- CC50 at 7 days [2]: > 30 µM
